# Experimental data from US10793601B2, “Therapeutic spalt-like transcription factor 4 (SALL4) peptide” (National University of Singapore, priority 2016, dated 2020).
# Ends that are not written are not given here.
# Experiments:
# [1] = test system: SNU398 cells; experiment: Cell viability assay in SNU398 cells; format: cell-based; settings: ratio of EC50, SNU398
# Procedure: FIGS. 3A-3E. Key residues involved in SALL4 (1-12)-RBBp4 binding. […] The difference in the binding free energy (ΔΔGbind) of the alanine mutants (ΔGmutant, Ala7 was mutated to glycine) and wild type (ΔGwild type) was calculated (ΔΔGbind=ΔGmutant−ΔGwild type). ΔΔGbind was tabulated (left) and plotted in a bar chart (right). […] Mutated residues are highlighted in red. The IC50 of each peptide, including WT, was determined by Fluorescence Polarization (FP). Different concentrations of each peptide were titrated into a mixture of 0.04 μM RBBp4 and 0.01 μM of C-labelled FITC-SALL4 WT peptide. Polarization was measured in mP. […] Pep-1 carrier was added to the peptide to facilitate cellular penetration of the peptides.
# FIGS. 5A-5B. Development of a potent therapeutic peptide FFW.
# SNU398 was grown in RPMI supplemented with 10% fetal bovine serum (FBS) at 37° C. in a humidified atmosphere of 5% CO2. 3000 cells were seeded in each well of a 96 well plate with 100 μL of medium. Before peptide treatment, cells were washed twice with PBS and treated with different concentrations of peptide in OPTIMEM (LifeTech). Media was added after 4 hrs of incubation at 37° C., and cells incubated for another 68 hrs. Tetrazolium (CellTiter96 AQueous One Solution Cell Proliferation Assay, Promega) was added after 72 hrs incubation with the peptides, and the plate was read at a plate reader at 490 nm after 1 hr of incubation in the dark at 37° C.
# [2] = test system: SNU387 cells; experiment: Cell viability assay in SNU387 cells (no SALL4 expression); format: cell-based; settings: cell viability after 72 hr
# Procedure: FIGS. 6A-6B. Therapeutic window of PEN-FFW in HCC cell lines. FIG. 6A: Peptides were added to HCC cell line SNU398 with high expression of SALL4. FIG. 6B: HCC cell line SNU387 with no expression of SALL4, and cell viability was measured after 72 hr of incubation.
# The efficacies of the FFW, WT and MUT peptides were compared at the cellular level and in mice. A penetratin sequence (PEN) was attached to the N-terminus of each peptide to facilitate cell penetration in vitro. […] The therapeutic window of PEN-FFW in SALL4 expressing HCC cells was accessed in SNU387 cells, a HCC line with undetectable level of SALL4, as well as SNU398. The MUT and WT SALL4 peptides were also included in this assay for comparison (FIGS. 6 A & B).
# [3] = test system: PTEN; experiment: PTEN mRNA in resected SNU398 tumors by real-time PCR; format: in vivo, NOD/SCID/gamma mice; settings: harvested SNU398 tumors
# Procedure: FIGS. 7A-7E. Anti-tumor activity of the candidate therapeutic peptide FFW. FIG. 7A: 7.2×10^5 SNU398 cells were inoculated subcutaneously into the right flank of NOD/SCID/gamma mice (NSG mice). Tumors were allowed to grow for one week before peptide treatments were administered every alternate day for a total of five injections. FIG. 7B: Tumor growth was documented by plotting tumor volume against time. […] FIG. 7C: Relative size of tumors resected on day 20. FIG. 7D: tumor weight was determined (n=5). PEN-FFW treated mice had the smallest tumors (μ=88.34 mg) compared to PEN (μ=1550.78 mg), PEN-MUT (μ=1273.46 mg) and PEN-WT (μ=563.46 mg). FIG. 7E: Total RNA was isolated from the resected tumors and expression of PTEN was measured using real-time PCR.
# Tumors resected from mice were homogenized in Trizol. Total RNA was extracted and treated with RNase-free DNase (Qiagen). Reverse transcription was carried out using Superscript III Reverse Transcriptase. Quantitative PCR was performed using GoTaq qPCR Master Mix (Promega). Amplification was done with a Corbett Rotor Gene 6000 (Qiagen). Each sample was assayed in triplicate.
# [4] = test system: SNU398; experiment: RNA-seq transcriptome analysis of treated SNU398; format: cell-based; settings: SNU398 treated 8 hrs
# Procedure: SNU398 were treated PEN, PEN-MUT, PEN-WT & PEN-FFW for 8 hrs and paired-end RNA-seq was performed for the treated samples. RNA-seq reads of each sample were mapped to hg19 using the STAR aligner. Normalization between the samples was based on the proportionality of the numbers of the mapped reads. The expression fold change of a transcript was obtained using linear regression of the reads between the two samples cross all exons. Differential expression between two samples was selected by using the fold change cut off of 2. Hierarchical clustering was performed based on average linkage to generate the clustering tree as well as heat maps. For identification of enriched gene sets or pathways, Gene Set Enrichment Analysis (GSEA) was performed based on the normalized data and using the GSEA tool (broad.mit.edu/gsea/) with msigdb.v5.0.
# [5] = mouse, in vivo
# Procedure: (§1) Mice were exposed to intraperitoneal (IP) administration of PEN-FFW (30 mg/kg) or vehicle (10% DMSO) every alternate day over the course of 17 days to a cumulative dose of 270 mg/kg.
# (§2) Toxicity of PEN-FFW was studied in vivo in C57BL/6 mice (n=4). Theses mice were exposed to intraperitoneal (IP) administration of PEN-FFW (30 mg/kg) or vehicle (10% DMSO) every alternate day over the course of 17 days to a cumulative dose of 270 mg/kg. […] After a 7-day washout period, complete blood counts and liver function assay tests were performed, and organs were harvested for histology. Potential liver injury caused by the peptide treatment was studied by testing serum AST (Aspartate Aminotransferase) and ALT (Alanine Aminotransferase) levels.
# (§3) 6-8-week old female C57BL mice were given PEN-FFW (30 mg/kg) (n=3) or DMSO control (n=2) every alternate day, for a total of 17 day, to a cumulative dose of 270 mg/kg. The mice were observed and weighted throughout the period. A 7 days wash out period were given before the mice were sacrificed with their blood and organs collected. Blood count were perform immediately with Celltact MEK6450 (Nihon Kohden, Japan), and serum were subjected for ALT and AST assay on the same day. ALT and AST were performed according to the manufacturer's protocol (Sigma-Aldrich, Merck, Germany). The organs were fixed with neutral buffered Formalin and embedded in paraffin. […]
# [6] = in vitro; settings: human, plasma, pH 7.4
# Procedure: PEN-FFW was incubated with human plasma (pH7.4) at 37° C. over a 24 hour period (5 timepoints). Incubations were performed at a concentration of 1 μM (final DMSO concentration 2.5%). Reactions were terminated at 0, 5, 10, 15, 30 min, or 0, 1, 2, 4 and 24 hour, by addition of 2 volumes of methanol containing 1% Formic acid. The samples were centrifuged (2500 rpm, 45 min, 4° C.) and the supernatants diluted with 2 volumes of 0.2% Formic acid (aq) (containing Metoprolol (internal standard)). […] The percentage of parent peptide remaining at each time point relative to the 0 min sample was calculated from LC-MS/MS peak area ratios (compound peak area/internal standard peak area).
# [7] = Toxicity study, repeated IP administration; settings: 30 mg/kg IP every alternate day, 17 days, cumulative 270 mg/kg
# Procedure: as §1, §2, §3
sequence,measurement,setting,value
RQIKIWFQNRRMKWKKRRKFAKFQWI [PEN-FFW],improvement as compared with PEN-WT,[1],4 fold
same,specificity SNU398 (SALL4 high) versus SNU387 (no SALL4),[2],specificity of PEN-FFW in targeting SALL4-high HCC cells (SNU398)
same,increase in PTEN expression in tumors compared to PEN control mice,[3],9 fold
same,share of DEGs upregulated,[4],more than 99%
same,tissue damage by microscopic examination of major organs,[5],No tissue damage was observed
same,"remaining at 0.5 h, 1 μM",[6],> 90%
same,"remaining at 4 h, 1 μM",[6],> 50%
same,"remaining at 24 h, 1 μM",[6],~20%
same,"signs of toxicity (weight loss, lethargy, loss of mobility)",[7],did not exhibit notable signs of toxicity
